Measurements from ChEMBL document CHEMBL4177730, “Rational modification of semaxanib and sunitinib for developing a tumor growth inhibitor targeting ATP binding site of tyrosine kinase” (2018).
Active and inactive are the calls of the source. The rule behind the calls is not given here.

Legend:
Hs-578T [1] = test: Growth inhibition of human Hs 578T cells at 10 uM after 48 hrs by sulforhodamine B assay; format: functional, cell-based
SNB-19 = test: Growth inhibition of human SNB19 cells after 48 hrs by sulforhodamine B assay; format: functional; details: SNB-19, 48 h
MDA-MB-435 = test: Growth inhibition of human MDA-MB-435 cells at 10 uM after 48 hrs by sulforhodamine B assay; format: functional, cell-based
HT-29 = test: Growth inhibition of human HT-29 cells after 48 hrs by sulforhodamine B assay; format: functional; details: HT-29, 48 h
MOLT-4 = test: Growth inhibition of human MOLT4 cells after 48 hrs by sulforhodamine B assay; format: functional; details: MOLT-4, 48 h
UO-31 = test: Growth inhibition of human UO31 cells at 10 uM after 48 hrs by sulforhodamine B assay; format: functional, cell-based
NCI-H226 [2] = test: Growth inhibition of human NCI-H226 cells at 10 uM after 48 hrs by sulforhodamine B assay; format: functional, cell-based
CAKI-1 = test: Growth inhibition of human CAKI-1 cells at 10 uM after 48 hrs by sulforhodamine B assay; format: functional, cell-based
CCRF-CEM [3] = test: Growth inhibition of human CCRF-CEM cells at 10 uM after 48 hrs by sulforhodamine B assay; format: functional, cell-based
SF-539 = test: Growth inhibition of human SF539 cells at 10 uM after 48 hrs by sulforhodamine B assay; format: functional, cell-based
SK-MEL-5 = test: Growth inhibition of human SK-MEL-5 cells at 10 uM after 48 hrs by sulforhodamine B assay; format: functional, cell-based
M14 = test: Growth inhibition of human M14 cells after 48 hrs by sulforhodamine B assay; format: functional; details: M14, 48 h
SR = test: Growth inhibition of human SR cells after 48 hrs by sulforhodamine B assay; format: functional
KM12 = test: Growth inhibition of human KM12 cells at 10 uM after 48 hrs by sulforhodamine B assay; format: functional, cell-based
BT-549 = test: Growth inhibition of human BT549 cells after 48 hrs by sulforhodamine B assay; format: functional; details: BT-549, 48 h
NCI-H460 = test: Growth inhibition of human NCI-H460 cells after 48 hrs by sulforhodamine B assay; format: functional; details: NCI-H460, 48 h
NCI-H522 [4] = test: Growth inhibition of human NCI-H522 cells at 10 uM after 48 hrs by sulforhodamine B assay; format: functional, cell-based
RXF 393 = test: Growth inhibition of human RXF393 cells at 10 uM after 48 hrs by sulforhodamine B assay; format: functional, cell-based
COLO 205 = test: Growth inhibition of human COLO205 cells at 10 uM after 48 hrs by sulforhodamine B assay; format: functional, cell-based
A498 [5] = test: Growth inhibition of human A498 cells at 10 uM after 48 hrs by sulforhodamine B assay; format: functional, cell-based
LOX IMVI = test: Growth inhibition of human LOXIMVI cells after 48 hrs by sulforhodamine B assay; format: functional
NCI-H522 [6] = test: Growth inhibition of human NCI-H522 cells after 48 hrs by sulforhodamine B assay; format: functional; details: NCI-H522, 48 h
SF-295 = test: Growth inhibition of human SF295 cells at 10 uM after 48 hrs by sulforhodamine B assay; format: functional, cell-based
SNB-75 = test: Growth inhibition of human SNB75 cells at 10 uM after 48 hrs by sulforhodamine B assay; format: functional, cell-based
RPMI-8226 = test: Growth inhibition of human RPMI8226 cells after 48 hrs by sulforhodamine B assay; format: functional; details: RPMI-8226, 48 h
CCRF-CEM [7] = test: Growth inhibition of human CCRF-CEM cells after 48 hrs by sulforhodamine B assay; format: functional
NCI-H23 = test: Growth inhibition of human NCI-H23 cells after 48 hrs by sulforhodamine B assay; format: functional; details: NCI-H23, 48 h
PC-3 = test: Growth inhibition of human PC3 cells at 10 uM after 48 hrs by sulforhodamine B assay; format: functional, cell-based
A498 [8] = test: Growth inhibition of human A498 cells after 48 hrs by sulforhodamine B assay; format: functional; details: A498, 48 h
OVCAR-3 = test: Growth inhibition of human OVCAR3 cells at 10 uM after 48 hrs by sulforhodamine B assay; format: functional, cell-based
Hs-578T [9] = test: Growth inhibition of human Hs 578T cells after 48 hrs by sulforhodamine B assay; format: functional
TK-10 = test: Growth inhibition of human TK10 cells at 10 uM after 48 hrs by sulforhodamine B assay; format: functional, cell-based
Malme-3M [10] = test: Growth inhibition of human MALME-3M cells at 10 uM after 48 hrs by sulforhodamine B assay; format: functional, cell-based
Malme-3M [11] = test: Growth inhibition of human MALME-3M cells after 48 hrs by sulforhodamine B assay; format: functional
OVCAR-4 = test: Growth inhibition of human OVCAR4 cells at 10 uM after 48 hrs by sulforhodamine B assay; format: functional, cell-based
ACHN = test: Growth inhibition of human ACHN cells after 48 hrs by sulforhodamine B assay; format: functional
HL-60(TB) = test: Growth inhibition of human HL-60(TB) cells after 48 hrs by sulforhodamine B assay; format: functional; details: HL-60, 48 h
HCC 2998 = test: Growth inhibition of human HCC2998 cells at 10 uM after 48 hrs by sulforhodamine B assay; format: functional, cell-based
NCI-H226 [12] = test: Growth inhibition of human NCI-H226 cells after 48 hrs by sulforhodamine B assay; format: functional; details: NCI-H226, 48 h
HOP-92 = test: Growth inhibition of human HOP92 cells after 48 hrs by sulforhodamine B assay; format: functional; details: HOP-92, 48 h
K562 = test: Growth inhibition of human K562 cells after 48 hrs by sulforhodamine B assay; format: functional; details: K562, 48 h
[13] = read-out: LC50 (the source's name)

In the case of `O=C1/C(=C\c2cccn2Cc2ccccc2)c2ccccc2N1c1c(Cl)cccc1Cl`, the “growth inhibition (GI)” value (Hs-578T [1]) is reported as “Active”, the GI50 (SNB-19) is reported as greater than 100 µM and the TGI (SNB-19) is reported as greater than 100 µM. For the same molecule, the CC50 (SNB-19; [13]) was greater than 100 µM, the “growth inhibition (GI)” value (MDA-MB-435) was “Active” and the GI50 (HT-29) was 6.45 µM. It also gave a TGI (HT-29) greater than 100 µM, a CC50 (HT-29; [13]) greater than 100 µM and a GI50 (MOLT-4) greater than 100 µM. For the same molecule, the TGI (MOLT-4) was greater than 100 µM, the CC50 (MOLT-4; [13]) was greater than 100 µM and the “growth inhibition (GI)” value (UO-31) was “Active”. For the same molecule, the “growth inhibition (GI)” value (NCI-H226 [2]) was “Active”, the “growth inhibition (GI)” value (CAKI-1) was “Active” and the “growth inhibition (GI)” value (CCRF-CEM [3]) was “Active”. The “growth inhibition (GI)” value (SF-539) was “Active”, the “growth inhibition (GI)” value (SK-MEL-5) was “Active” and the GI50 (M14) was greater than 100 µM. The TGI (M14) was greater than 100 µM, the CC50 (M14; [13]) was greater than 100 µM and the GI50 (SR) was greater than 100 µM. The TGI (SR) was greater than 100 µM, the CC50 (SR; [13]) was greater than 100 µM and the “growth inhibition (GI)” value (KM12) was “Active”. For the same molecule, the GI50 (BT-549) was greater than 100 µM, the TGI (BT-549) was greater than 100 µM and the CC50 (BT-549; [13]) was greater than 100 µM. It also gave a GI50 (NCI-H460) of 4.16 µM, a TGI (NCI-H460) greater than 100 µM and a CC50 (NCI-H460; [13]) greater than 100 µM. For the same molecule, the “growth inhibition (GI)” value (NCI-H522 [4]) was “Active”, the “growth inhibition (GI)” value (RXF 393) was “Active” and the “growth inhibition (GI)” value (COLO 205) was “Active”. The “growth inhibition (GI)” value (A498 [5]) was “Active”, the GI50 (LOX IMVI) was greater than 100 µM and the TGI (LOX IMVI) was greater than 100 µM. The CC50 (LOX IMVI; [13]) was greater than 100 µM, the GI50 (NCI-H522 [6]) was greater than 100 µM and the TGI (NCI-H522 [6]) was greater than 100 µM. For the same molecule, the CC50 (NCI-H522 [6]; [13]) was greater than 100 µM, the “growth inhibition (GI)” value (SF-295) was “Active” and the “growth inhibition (GI)” value (SNB-75) was “Active”. For the same molecule, the GI50 (RPMI-8226) was 1.28 µM, the TGI (RPMI-8226) was greater than 100 µM and the CC50 (RPMI-8226; [13]) was greater than 100 µM. The GI50 (CCRF-CEM [7]) was greater than 100 µM, the TGI (CCRF-CEM [7]) was greater than 100 µM and the CC50 (CCRF-CEM [7]; [13]) was greater than 100 µM. The GI50 (NCI-H23) was 39.8 µM, the TGI (NCI-H23) was greater than 100 µM and the CC50 (NCI-H23; [13]) was greater than 100 µM. For the same molecule, the “growth inhibition (GI)” value (PC-3) was “Active”, the GI50 (A498 [8]) was greater than 100 µM and the TGI (A498 [8]) was greater than 100 µM. For the same molecule, the CC50 (A498 [8]; [13]) was greater than 100 µM, the “growth inhibition (GI)” value (OVCAR-3) was “Active” and the GI50 (Hs-578T [9]) was greater than 100 µM. The TGI (Hs-578T [9]) was greater than 100 µM, the CC50 (Hs-578T [9]; [13]) was greater than 100 µM and the “growth inhibition (GI)” value (TK-10) was “Active”. The “growth inhibition (GI)” value (Malme-3M [10]) was “Active”, the GI50 (Malme-3M [11]) was 3.16 µM and the TGI (Malme-3M [11]) was greater than 100 µM. The CC50 (Malme-3M [11]; [13]) was greater than 100 µM, the “growth inhibition (GI)” value (OVCAR-4) was “Active” and the GI50 (ACHN) was 8.31 µM. For the same molecule, the TGI (ACHN) was greater than 100 µM, the CC50 (ACHN; [13]) was greater than 100 µM and the GI50 (HL-60(TB)) was greater than 100 µM. For the same molecule, the TGI (HL-60(TB)) was greater than 100 µM, the CC50 (HL-60(TB); [13]) was greater than 100 µM and the “growth inhibition (GI)” value (HCC 2998) was “Active”. For the same molecule, the GI50 (NCI-H226 [12]) was 6.16 µM, the TGI (NCI-H226 [12]) was greater than 100 µM and the CC50 (NCI-H226 [12]; [13]) was greater than 100 µM. For the same molecule, the GI50 (HOP-92) was 0.97 µM, the TGI (HOP-92) was 17.8 µM and the CC50 (HOP-92; [13]) was greater than 100 µM. It also gave a GI50 (K562) greater than 100 µM, a TGI (K562) greater than 100 µM and a CC50 (K562; [13]) greater than 100 µM.
